Test: Solubility of drug substance in water / suspension
Assay type: physicochemical

## Cc1ccc(Nc2c(F)cccc2Cl)c(CC(=O)O)c1 [5-methyl-2-(2′-chloro-6′-fluoroanilino)phenylacetic acid]
  water solubility of drug substance: relatively water insoluble

Source: US20060094787A1, “Pharmaceutical composition comprising 5-methyl-2-2'(chloro-6'-fluoroanilino) phenylacetic acid” (priority 2003, published 2006)
